How the values were obtained:
[1] = system: MCF7 breast tumors; assay: FASTSPECT dynamic imaging of MCF7 tumor xenografts (MCF7/S and MCF7/D40 together); assay type: in vivo, SCID mice
Procedure: (§1) Tumor cell lines used. MCF7/S: Cells are parental, drug (doxorubicin) sensitive, breast carcinoma cells. MCF7/D40: Cells were generated in vitro by successive culturing parental MCF7 cells in slowly increasing concentrations of doxorubicin with a total selection time of 31 months. Twenty-eight SCID mice were studied. MCF7/S or MCF7/D40 tumors were grown for 10-14 days after subcutaneous injection of 1×10^6 cells into the right thigh. Groups of mice with the xenografted tumors included: (MCF7/S group: MIBI: n=9; GLA: n=8) and (MCF7/D40 group: MIBI: n=6; GLA: n=5).
(§2) The dynamic imaging system SPECT consisted of 24 small modular gamma cameras. Each modular camera consists of a 10 cm×10 cm NaI(Tl) scintillation crystal, 4 square (5 cm×5 cm) Hamamatsu photomultiplier tubes. The system included a cylindrical aperture with twenty four 1-mm diameter pinholes drilled in the aperture. A point source in the center of the field of view is projected simultaneously to the center of each camera. Total magnification is 3.5 in a 3.0 cm×3.2 cm×3.2 cm field of view. The spatial resolution of the system is about 1.0 mm, with a sensitivity of 13.3 cps/μCi.
(§3) ^99mTc-GLA or ^99mTc-MIBI (5-8 mCi, 185-296 MBq) was injected via a jugular vein catheter. Dynamic images were acquired for 2 hours. Twenty-four projections were obtained, one from each camera. Each scintillation event within the camera's NaI crystal was registered as the digitized outputs from the camera's four photomultiplier tubes. The four photomultiplier outputs were compared to a 20-bit look-up table derived from a calibration procedure that involved moving a collimated source across the camera face.
(§4) Tumor image reconstruction was performed using 100 iterations of the maximum-likelihood expectation-maximization (ML-EM) algorithm. Using SlicerDicer software, three-dimensional images were computed to provide images in a 33×49×49 voxels format, and generate tomographic transaxial, coronal and sagittal slices with one-pixel thickness (1.0 mm). Regions of interest (ROI) over the tumors were created and applied to the dynamic images for determining time-activity curves. The percent washout rate relative to the peak uptake of the tumors were calculated.

[2] = system: infarcted hearts; details: isoproterenol-induced myocardial infarction; cited from earlier work
[3] = system: ischemic-reperfused myocardium; assay: FASTSPECT hot spot imaging and washout kinetics in ischemic-reperfused rat heart models (IR30, IR90); assay type: in vivo; design: half-time value (t1/2) of washout, late phase / half-time value (t1/2) of washout, early phase: unit not given here; details: for GLA hot spot size (% LV): 120-min image, mean ± SEM; for GLA hot spot size (% IAR): normalized to ischemic area at risk; for averaged ratio of whole-heart hot spot activity to normal myocardial activity: two hours after injection
Procedure: Ischemic-Reperfused Rat Heart Models were prepare from Male Sprague-Dawley rats (weight, 250-300 g) that were anesthetized with 1.0%-1.5% isoflurane. The model of myocardial ischemia-reperfusion was developed using know techniques. The rat was prepared by first removing the fur from the chest and neck region with electric clippers. The jugular vein was catheterized through a surgical procedure. An incision was made over the jugular furrow, and blunt and sharp dissection was used to isolate the jugular vein. A PE-10 catheter was advanced through a nick made by micro scissors and then secured by ligatures. After tracheotomy, the rats were ventilated using a volume-controlled Inspira Advanced Safety Ventilator (Harvard Apparatus, Inc.) with a mixture of oxygen and room air. Using each animal's weight, the tidal volume (1.2 mL/100 g) and respiration rate (65-70 breaths/min) were automatically calculated in Safe Range settings (Harvard Apparatus). With a left intercostals thoracotomy incision, the chest was opened at the fourth or fifth intercostal space. The pericardium was opened and the heart was exposed. A small, curved, tapered needle threaded 5-0 silk through the tissue between the pulmonary cone and the left auricular appendage. A ligature was placed around the LCA with a small amount of myocardium. The ligature was pulled tight by passing the suture through a polyethylene tubing and clamping it for coronary occlusion. After the LCA was occluded for 30 or 90 min, 30 min of reperfusion was achieved by releasing the ligature. Hydrochloride lidocaine (5%) was administered via intravenous injection and cardiac surface drop when ventricular fibrillation was induced by LCA occlusion or reflow. During the period of surgery and ischemia-reperfusion treatment, the body temperature of the animal was maintained with a heating pad. The chest of the rat was closed before the animal was imaged with FASTSPECT.
Eighteen rats were divided into 2 groups to receive regional myocardial ischemia-reperfusion treatments. Group 1 animals (IR30, n=12 [IR=ischemia-reperfusion]) were treated by ligating the LCA for 30 min and releasing the ligature for 30 min. The LCA in group 2 animals (IR90, n=6) was ligated for 90 min and then released for 30 min.
Radiopharmaceutical preparation; GLA kits were provided by Molecular Targeting Technologies Inc. The reagent in the vial was a sterile, nonpyrogenic, lyophilized composition of […], GLA, sodium bicarbonate, and hydrochloric acid. A vial of GLA was reconstituted by the addition of 1 mL of ^99mTc as sodium pertechnetate (no <2.59 GBq [no <70 mCi]) in accordance with the manufacturer's instructions. The solution in the vial was allowed to stand at room temperature for 15 min. ^99mTc-GLA radiochemical purity (RCP) was verified by thin-layer liquid chromatography using Gelman instant thin-layer silica gel (ITLC-SG) strips developed in saline and acetone. In the ITLC-SG strip developed by saline, ^99mTc-colloid remained at the origin while ^99mTc-GLA and ^99mTc-pertechnetate migrated near the solvent front. In the strip developed by acetone, ^99mTc-GLA and ^99mTc-colloid remained at the origin while ^99mTc-pertechnetate moved near the solvent front. The RCP of ^99mTc-GLA exceeded 95% for all experimental injections. ^99mTc-GLA was used within 3 h after preparation.
The high-resolution stationary SPECT system, FASTSPECT, was built in the Department of Radiology Research Laboratory at The University of Arizona (as described by references 9-11 in Liu et. al, J. Nucl. Med. (2004), vol. 45, pp 1251-1259). In this system, 24 small modular γ cameras are arranged in 2 circular arrays with a cylindric aperture. […] Twenty-four 1-mm diameter pinholes were drilled in the aperture such that a point source in the center of the field of view (FOV) is simultaneously projected to the center of each camera. The dead space between adjacent cameras at the director surface is 7% of the total area. […]

[4] = system: MCF7/D40 tumor xenograft; assay: FASTSPECT dynamic imaging and tumor washout kinetics, drug-resistant (Pgp positive) xenograft; assay type: in vivo, SCID mice
Procedure: as §1, §2, §3, §4

## ^99mTc-glucarate
[1]; Example 3
  time tumors remained detectable after injection: at least 2 hrs
[1]; FASTSPECT imaging, all tumors of the glucarate groups, i.v.
  time to initial visualization of tumors after injection: ≤ 5 min
[1]; FASTSPECT imaging, i.v.
  time to unequivocal localization/visualization of tumors after injection: 10 to 30 min
[1]; dynamic images
  time radioactive accumulation in the MCF7 tumors remained post-injection: at least 120 minutes
[2]
  uptake in infarcted hearts relative to normal rats: 6 times
[3]; IR30 (n = 12)
  GLA hot spot size (% LV): 28.4 ± 2.1 % LV
  GLA hot spot size (% IAR): 58.4 ± 2.7 % IAR
[3]; IR30 and IR90 hearts
  time after injection the infarct remained well defined: at least 120 min
[3]; IR30 vs IR90
  hot spot/normal ratio in group 1 (IR30) relative to group 2 (IR90), fold lower: 1.94 fold
[3]; IR90 (n = 6)
  GLA hot spot size (% LV): 42.0 ± 2.6 % LV
  GLA hot spot size (% IAR): 75.9 ± 2.7 % IAR
[3]; group 1 (IR30)
  final ratio of hot spot to normal myocardial activity: 4.91±0.71
  averaged ratio of whole-heart hot spot activity to normal myocardial activity: 4.1±0.3
[3]; group 2 (IR90)
  final ratio of hot spot to normal myocardial activity: 9.53±1.76
  averaged ratio of whole-heart hot spot activity to normal myocardial activity: 7.1±1.1
[3]; hot spot, IR30
  half-time value (t1/2) of washout, early phase: 2.4±0.4
  half-time value (t1/2) of washout, late phase: 216.3±23.8
[3]; hot spot, IR30 (30-min LCA occlusion, 30-min reperfusion), 2 h
  fractional retention (% peak) by the end of experiment: 31.0±1.3 % peak
[3]; hot spot, IR90
  half-time value (t1/2) of washout, early phase: 3.8±1.1
  half-time value (t1/2) of washout, late phase: 511.5±74.2
[3]; hot spot, IR90 (90-min LCA occlusion, 30-min reperfusion), 2 h
  fractional retention (% peak) by the end of experiment: 42.1±4.0 % peak
[3]; normal zone, IR30
  half-time value (t1/2) of washout, early phase: 1.6±0.4
  half-time value (t1/2) of washout, late phase: 66.6±5.5
[3]; normal zone, IR30, 2 h
  fractional retention (% peak) by the end of experiment: 7.5±1.0 % peak
[3]; normal zone, IR90
  half-time value (t1/2) of washout, early phase: 2.0±0.2
  half-time value (t1/2) of washout, late phase: 49.1±2.9
[3]; normal zone, IR90, 2 h
  fractional retention (% peak) by the end of experiment: 6.4±0.9 % peak
[4]
  two-hour fractional washout (% peak activity): 71.9±2.9%

Source: patent US20050152835A1, “Technetium-99M glucarate methods of use for monitoring tissues” (priority 2003, published 2005)
